Data taken from US9925222B2, “Gut barrier dysfunction treatment and prevention” (ALBERT EINSTEIN COLLEGE OF MEDICINE OF YESHIVA UNIVERSITY, priority 2012, dated 2018).

Molecular target: T1, mouse PXR (mPXR) (Mus musculus, UniProt O54915)
T1 construct: expressed in transfected cells; host or cells: 293T cells
T1 sequence (O54915 1-431): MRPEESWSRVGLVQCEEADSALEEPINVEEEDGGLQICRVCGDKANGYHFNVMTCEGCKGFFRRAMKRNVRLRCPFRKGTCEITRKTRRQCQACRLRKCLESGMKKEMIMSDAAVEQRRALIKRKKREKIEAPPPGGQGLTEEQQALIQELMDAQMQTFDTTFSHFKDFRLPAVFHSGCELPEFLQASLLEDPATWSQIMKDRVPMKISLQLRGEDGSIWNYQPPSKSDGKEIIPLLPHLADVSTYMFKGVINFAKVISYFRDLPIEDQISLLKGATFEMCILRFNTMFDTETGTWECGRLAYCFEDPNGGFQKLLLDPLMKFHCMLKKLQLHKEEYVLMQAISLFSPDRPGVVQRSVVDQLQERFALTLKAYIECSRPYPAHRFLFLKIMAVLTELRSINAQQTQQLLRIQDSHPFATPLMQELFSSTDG
Experiment: In vitro transcription assay, PXR reporter gene (MRP2 luciferase) with mPXR expression plasmid in 293T cells
Type: cell-based
Experimental: These assays were performed in 293T cells as previously published (33). In brief, transient transfection by lipofectamine (Invitrogen) were carried out in 293T cells with plasmids expressing human PXR (hPXR), mouse PXR (mPXR), GAL4-FXR, GAL4-LXR, GAL4-PPARγ and mouse CAR (mCAR) with respective reporter plasmids (Tk-MRP2-luciferase, Tk-MH100-luciferase, CYP2B10-luciferase) and Renilla. […] The cells were harvested in passive lysis buffer (Promega) and luciferase activity was detected using the dualluciferase reporter assay system from Promega in 20 μl of cell lysate using the Turner Biosystems 20/20 n Luminometer. Assays were performed at least two independent times each in triplicates.

## O=C(O)CCc1c[nH]c2ccccc12 [IPA, indole-3-propionic acid]
  EC50: 0.55 µM
  Emax, mPXR transcription assay: 18.84 fold over control
